{"source": "patent US20160158200A1", "about": "“Combinations of Hepatitis C Virus Inhibitors” (priority 2013, published 2016)", "system": "HCV genotype-1a variant with glutamine 30 changed to glutamate in the NS5A protein", "format": "cell-based", "details": "test compound titrated with BMS-790052 fixed at 200 nM; genotype 1a Q30E replicon", "summary_of_the_method": "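Synergy was assessed by combining several fixed amounts of an NS5A-targeting compound with a titration of the second compound of interest.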"}
{"smiles": "CC1(C)C2CCC(C(=O)N[C@H](c3nc(-c4ccc(-c5ccc(-c6c[nH]c([C@@H](NC(=O)C78CCC(C7)C(C)(C)C8O)C7(C)CC7)n6)cc5)cc4)c[nH]3)C3(C)CC3)(C2)C1O", "note": "(single isomer, unassigned) [Compound Y-117]", "values": [{"measurement": "Fold-Synergistic 1a (Q30E)", "result": ">100", "unit": "fold"}]}
{"smiles": "CC(C)(C)C(NC(=O)C1CC(=O)c2ccccc21)c1nc(-c2ccc(-c3ccc(-c4c[nH]c(C(NC(=O)C5CC(=O)c6ccccc65)C(C)(C)C)n4)cc3)cc2)c[nH]1", "note": "(mixture of isomers) [Compound S-257]", "values": [{"measurement": "Fold-Synergistic 1a (Q30E)", "result": ">10", "unit": "fold"}]}
{"smiles": "CC(C)[C@H](NC(=O)CCN1CCOCC1)c1ncc(-c2ccc(-c3ccc(-c4cnc([C@@H](NC(=O)CCN5CCOCC5)C(C)C)[nH]4)cc3)cc2)[nH]1", "note": "[Compound S-62]", "values": [{"measurement": "Fold-Synergistic 1a (Q30E)", "result": "<10", "unit": "fold"}]}
{"smiles": "CC(C)OC(=O)N1CCC[C@H]1c1ncc(-c2ccc(-c3ccc(-c4cnc([C@@H]5CCCN5C(=O)OC(C)C)[nH]4)cc3)cc2)[nH]1", "note": "[Compound S-220]", "values": [{"measurement": "Fold-Synergistic 1a (Q30E)", "result": ">10", "unit": "fold"}]}
{"smiles": "O=C(N1CCC(F)(F)CC1)C1(c2nc(-c3ccc(-c4ccc(-c5c[nH]c(C6(C(=O)N7CCC(F)(F)CC7)CCC6)n5)cc4)cc3)c[nH]2)CCC1", "note": "[Compound P-137]", "values": [{"measurement": "Fold-Synergistic 1a (Q30E)", "result": ">10", "unit": "fold"}]}
{"smiles": "Cc1cc(-c2c[nH]c(C3CC[C@H](C)N3C(=O)C(=O)N3CCC(F)(F)CC3)n2)ccc1-c1ccc(-c2c[nH]c(C3CC[C@H](C)N3C(=O)C(=O)N3CCC(F)(F)CC3)n2)cc1", "note": "(stereo partly shown) [Compound W-242]", "values": [{"measurement": "Fold-Synergistic 1a (Q30E)", "result": ">100", "unit": "fold"}]}
{"smiles": "CCC(C)(C)C(=O)N[C@H](c1nc(-c2ccc(-c3ccc(-c4c[nH]c([C@@H](NC(=O)C(C)(C)CC)C(C)(C)C)n4)cc3)cc2)c[nH]1)C(C)(C)C", "note": "[Compound P-11]", "values": [{"measurement": "Fold-Synergistic 1a (Q30E)", "result": ">100", "unit": "fold"}]}
{"smiles": "CC(C)(C)C(NC(=O)C1C(c2ccccc2)C1c1ccccc1)c1nc(-c2ccc(-c3ccc(-c4c[nH]c(C(NC(=O)C5C(c6ccccc6)C5c5ccccc5)C(C)(C)C)n4)cc3)cc2)c[nH]1", "note": "(mixture of isomers) [Compound S-271]", "values": [{"measurement": "Fold-Synergistic 1a (Q30E)", "result": ">100", "unit": "fold"}]}
{"smiles": "COc1ccc(C(=O)N[C@H](c2ncc(-c3ccc(-c4ccc(-c5cnc([C@@H](NC(=O)c6ccc(OC)cc6)C(C)C)[nH]5)cc4)cc3)[nH]2)C(C)C)cc1", "note": "[Compound S-28]", "values": [{"measurement": "Fold-Synergistic 1a (Q30E)", "result": ">100", "unit": "fold"}]}
{"smiles": "CC(C)(C)C(=O)N[C@H](c1ncc(-c2ccc(-c3ccc(-c4cnc([C@@H](NC(=O)C(C)(C)C)C(C)(C)CF)[nH]4)cc3)cc2)[nH]1)C(C)(C)CF", "note": "[Compound Y-68]", "values": [{"measurement": "Fold-Synergistic 1a (Q30E)", "result": ">100", "unit": "fold"}]}
{"smiles": "CC(C)[C@H](NC(=O)c1ccc2ccccc2c1)c1ncc(-c2ccc(-c3ccc(-c4cnc([C@@H](NC(=O)c5ccc6ccccc6c5)C(C)C)[nH]4)cc3)cc2)[nH]1", "note": "[Compound S-10]", "values": [{"measurement": "Fold-Synergistic 1a (Q30E)", "result": ">100", "unit": "fold"}]}
{"smiles": "CC(COCc1ccccc1)(OCCF)C(=O)N[C@H](c1nc(-c2ccc(-c3ccc(-c4c[nH]c([C@@H](NC(=O)C(C)(COCc5ccccc5)OCCF)C(C)(C)C)n4)cc3)cc2)c[nH]1)C(C)(C)C", "note": "(single isomer, unassigned) [Compound W-261b]", "values": [{"measurement": "Fold-Synergistic 1a (Q30E)", "result": ">100", "unit": "fold"}]}
{"smiles": "O=C(c1nccc2ccccc12)N1CCC[C@H]1c1ncc(-c2ccc(-c3ccc(-c4cnc([C@@H]5CCCN5C(=O)c5nccc6ccccc56)[nH]4)cc3)cc2)[nH]1", "note": "[Compound S-202]", "values": [{"measurement": "Fold-Synergistic 1a (Q30E)", "result": ">100", "unit": "fold"}]}
{"smiles": "CC(C)(C)[C@H](NC(=O)C1CC2(C1)CC(F)(F)C2)c1nc(-c2ccc(-c3ccc(-c4c[nH]c([C@@H](NC(=O)C5CC6(C5)CC(F)(F)C6)C(C)(C)C)n4)cc3)cc2)c[nH]1", "note": "[Compound P-46]", "values": [{"measurement": "Fold-Synergistic 1a (Q30E)", "result": ">100", "unit": "fold"}]}
{"smiles": "CC(C)(C)OC(=O)NC1(C(=O)N[C@H](c2nc(-c3ccc(-c4ccc(-c5c[nH]c([C@@H](NC(=O)C6(NC(=O)OC(C)(C)C)CCCC6)C(C)(C)C)n5)cc4)cc3)c[nH]2)C(C)(C)C)CCCC1.O=C(O)C(F)(F)F.O=C(O)C(F)(F)F", "note": "[Compound L-6]", "values": [{"measurement": "Fold-Synergistic 1a (Q30E)", "result": ">100", "unit": "fold"}]}
{"smiles": "CC1([C@H](NC(=O)N2CCC(F)(F)CC2)c2nc(-c3ccc(-c4ccc(-c5c[nH]c([C@@H](NC(=O)N6CCC(F)(F)CC6)C6(C)CC6)n5)cc4)cc3)c[nH]2)CC1", "note": "[Compound P-135]", "values": [{"measurement": "Fold-Synergistic 1a (Q30E)", "result": ">100", "unit": "fold"}]}
{"smiles": "CC(C)[C@H](NC(=O)N1CCCCC1)c1ncc(-c2ccc(-c3ccc(-c4cnc([C@@H](NC(=O)N5CCCCC5)C(C)C)[nH]4)cc3)cc2)[nH]1", "note": "[Compound S-234]", "values": [{"measurement": "Fold-Synergistic 1a (Q30E)", "result": ">100", "unit": "fold"}]}
{"smiles": "CC(C)(C)C(NC(=O)C(O)C1CCCCC1)c1nc(-c2ccc(-c3ccc(-c4c[nH]c(C(NC(=O)C(O)C5CCCCC5)C(C)(C)C)n4)cc3)cc2)c[nH]1", "note": "[Compound L-74]", "values": [{"measurement": "Fold-Synergistic 1a (Q30E)", "result": ">100", "unit": "fold"}]}
{"smiles": "COC(=O)NC(C(=O)NC(c1nc(-c2ccc(-c3ccc(-c4c[nH]c(C(NC(=O)C(NC(=O)OC)C5CC(C)OC(C)C5)C(C)(C)C)n4)cc3)cc2)c[nH]1)C(C)(C)C)C1CC(C)OC(C)C1", "note": "[Compound L-72]", "values": [{"measurement": "Fold-Synergistic 1a (Q30E)", "result": ">10", "unit": "fold"}]}
{"smiles": "CC(C)(C)[C@H](NC(=O)C1(CO)COC1)c1nc(-c2ccc(-c3ccc(-c4c[nH]c([C@@H](NC(=O)C5(CO)COC5)C(C)(C)C)n4)cc3)cc2)c[nH]1", "note": "[Compound L-125]", "values": [{"measurement": "Fold-Synergistic 1a (Q30E)", "result": ">100", "unit": "fold"}]}
{"smiles": "CC(C)(C)[C@H](NC(=O)C(=O)c1cccs1)c1nc(-c2ccc(-c3ccc(-c4c[nH]c([C@@H](NC(=O)C(=O)c5cccs5)C(C)(C)C)n4)cc3)cc2)c[nH]1", "note": "[Compound W-19]", "values": [{"measurement": "Fold-Synergistic 1a (Q30E)", "result": ">100", "unit": "fold"}]}
{"smiles": "CC(C)(C)[C@H](NC(=O)[C@@H]1C[C@@H]2[C@H](C1)C2(F)F)c1nc(-c2ccc(-c3ccc(-c4c[nH]c([C@@H](NC(=O)[C@@H]5C[C@@H]6[C@H](C5)C6(F)F)C(C)(C)C)n4)cc3)cc2)c[nH]1", "note": "[Compound Y-9]", "values": [{"measurement": "Fold-Synergistic 1a (Q30E)", "result": ">100", "unit": "fold"}]}
{"smiles": "CC(C)N(C(=O)C(=O)N[C@H](c1nc(-c2ccc(-c3ccc(-c4c[nH]c([C@@H](NC(=O)C(=O)N(C(C)C)C5CC5)C5(C)CC5)n4)cc3)cc2)c[nH]1)C1(C)CC1)C1CC1", "note": "[Compound W-58]", "values": [{"measurement": "Fold-Synergistic 1a (Q30E)", "result": ">100", "unit": "fold"}]}
{"smiles": "CC(C)(C)[C@H](NC(=O)C1CCC(F)(F)CC1)c1ncc(-c2ccc3cc4cc(-c5cnc([C@@H](NC(=O)C6CCC(F)(F)CC6)C(C)(C)C)[nH]5)ccc4cc3c2)[nH]1", "note": "[Compound B26]", "values": [{"measurement": "Fold-Synergistic 1a (Q30E)", "result": ">100", "unit": "fold"}]}
{"smiles": "CC1(C(O)C(C)(C)C(=O)N[C@H](c2nc(-c3ccc(-c4ccc(-c5c[nH]c([C@@H](NC(=O)C(C)(C)C(O)C6(C)CC6)C(C)(C)C)n5)cc4)cc3)c[nH]2)C(C)(C)C)CC1", "note": "(single isomer, unassigned) [Compound N-151C]", "values": [{"measurement": "Fold-Synergistic 1a (Q30E)", "result": ">100", "unit": "fold"}]}
{"smiles": "CC(C)CC(=O)NC1(c2ncc(-c3ccc(-c4ccc(-c5cnc(C6(NC(=O)CC(C)C)CC6)[nH]5)cc4)cc3)[nH]2)CC1.O=C(O)C(F)(F)F.O=C(O)C(F)(F)F", "note": "[Compound N-21]", "values": [{"measurement": "Fold-Synergistic 1a (Q30E)", "result": "<10", "unit": "fold"}]}
{"smiles": "COc1ccc(CNC(C)(C)C(=O)N[C@H](c2nc(-c3ccc(-c4ccc(-c5c[nH]c([C@@H](NC(=O)C(C)(C)NCc6ccc(OC)cc6)C(C)(C)C)n5)cc4)cc3)c[nH]2)C(C)(C)C)cc1", "note": "[Compound S-267]", "values": [{"measurement": "Fold-Synergistic 1a (Q30E)", "result": ">100", "unit": "fold"}]}
{"smiles": "CC(C)COC(=O)N1CCC[C@H]1c1ncc(-c2ccc(-c3ccc(-c4cnc([C@@H]5CCCN5C(=O)OCC(C)C)[nH]4)cc3)cc2)[nH]1", "note": "[Compound S-222]", "values": [{"measurement": "Fold-Synergistic 1a (Q30E)", "result": ">10", "unit": "fold"}]}
